Where “and” joins values, the source holds several entries; their conditions need not be identical. Equal entries are not always repeated. Structures can show the parent of a compound that is named as a salt.
What was measured:
[1] = molecular target: T1, bovine pancreatic trypsin (Bos taurus, UniProt P00760); assay: Enzyme assay for the inhibition of trypsin (Z-Val-Gly-Arg-pNA substrate); format: biochemical; conditions: 3 min incubation of drug with enzyme, room temperature, pH 8.0; read-out: Trypsin IC50
T1 construct: purified bovine pancreatic trypsin dissolved in trypsin assay buffer
T1 sequence (P00760 24-246): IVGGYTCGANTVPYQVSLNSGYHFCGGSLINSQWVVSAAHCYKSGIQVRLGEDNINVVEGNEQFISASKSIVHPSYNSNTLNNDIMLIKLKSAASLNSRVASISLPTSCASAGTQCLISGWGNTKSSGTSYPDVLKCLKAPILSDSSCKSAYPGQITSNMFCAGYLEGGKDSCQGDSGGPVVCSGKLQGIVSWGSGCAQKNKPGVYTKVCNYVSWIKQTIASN
Procedure: 2. Enzyme Assays for the Inhibition of Trypsin
(§1) The following reagents were used in these assays:
Trypsin assay buffer: 2 mM CaCl2, 50 mM Tris/Cl pH 8.0.
3 mM Z-Val-Gly-Arg-pNA (Chromzyme TRy) dissolved in H2 O.
6 μg/ml of purified bovine pancreatic trypsin dissolved in trypsin assay buffer.
Inhibitors to be tested were dissolved in H2 O, methanol or DMSO just prior to use.
To each well in a 96-well microtiter plate, 270 μl of assay buffer was added. Bovine trypsin (10 μl of 6 μg/ml) was added. Inhibitor (10 μl ) was added, mixed, and then incubated at room temperature for 3 min. The enzymic reaction was started with 10 μl of 3 mM Z-Val-Gly-Arg-pNA substrate. The change in optical density was measured at 405 nm at room temperature. A kinetic microplate reader (Molecular Devices Corporation Vmax) was used to measure the change in optical density over time.
Results are reported in Table 1 as IC50 values, i.e., the drug concentration in mole/liter which caused 50% inhibition of the enzyme activity (after incubation of the drug with the enzyme for 3 min).

[2] = molecular target: T2, human α-thrombin (Homo sapiens, UniProt P00734); assay: Concentration required for doubling thrombin clotting time in human plasma; format: biochemical; conditions: human citrated plasma, 10 U/ml human thrombin; read-out: ED50, drug concentration required to double clotting time
T2 construct: purified human α-thrombin dissolved in thrombin assay buffer
Procedure: Procedure for Determining the Concentration Required for Doubling Thrombin Clotting Time--Clotting Time Assays The following reagents were used in these assays: Owren's Veronal Buffer: 125 mM NaCl, 28.4 mM sodium barbital, pH 7.35. Human citrated plasma obtained from human volunteers or citrated plasma obtained from IP-dosed animals (prepared as described below). 10 NIH Units/ml human α-thrombin in thrombin buffer for use with human plasma. […] The blood was centrifuged at […] (480×g) for 15 min at room temperature (using a Sorvall RT 6000B centrifuge). The plasma was removed, pooled, and aliquoted into small tubes which were stored frozen for later use. Clotting Time Measurement Clotting times were determined by pipetting 0.1 ml of Owren's buffer (pre-warmed 37° C.) and 0.1 ml of human or rat plasma into yellow sample cuvettes. For studies with human plasma 10 U/ml human thrombin (10 ml) was placed in the reservoir assembly station of the MLA 700. (Medical Laboratory Automation, Electra 700 Reservoir Assembly). For rat studies, the human thrombin concentration was 25 U/ml. The cuvettes were vortexed and then placed on the MLA 700 sample wheel. The coagulation timer (MLA 700) automatically dispenses 0.1 ml human thrombin into the sample in each cuvette. Detection of the fibrin clot was determined optically by the MLA 700. Studies were performed to determine the concentration of drug which caused a doubling of the clotting time in human plasma. From standard curves of thrombin activity added to the sample versus the clotting time, the concentration of drug which caused a doubling of the thrombin clotting time corresponded to inhibition of approximately 1/2 of the added thrombin clotting activity. Results are reported in Table 1 as ED50 values, i.e., the drug concentration required to double clotting time.

[3] = molecular target: T2, human α-thrombin; assay: Enzyme assay for the inhibition of thrombin (s-2238 substrate); format: biochemical
Procedure: 1. Enzyme Assays for the Inhibition of Thrombin The following reagents were used in these assays: Thrombin assay buffer: 145 mM NaCl, 5 mM KCl, 30 mM N-2-hydroxyethyl piperazine-N'-2-ethanesulfonic acid, pH 7.4, 1 mg/ml polyethylene glycol (PEG-8000). 3 mM D-Phe-Pip-Arg-p-nitroanilide (s-2238) in H2 O. 3 U/ml purified human α-thrombin dissolved in thrombin assay buffer. Inhibitors to be tested were dissolved in H2 O, methanol, or DMSO just prior to use. Assay Procedure To each well in a 96-well microtiter plate, 270 μl of assay buffer was added. Human α-thrombin (10 μl of 3 U/ml) was added, then 10 μl of inhibitor were added and mixed. The samples were incubated at room temperature for a defined period of time (3 min for initial IC50 determinations). The enzymic reaction was started with 10 μl of 3 mM s-2238 substrate and continued at room temperature. The change in optical density was measured at 405 nm. A kinetic microplate reader (Molecular Devices Corporation Vmax) was used to measure the change in optical density over time. Results are reported in Table 1 as IC50 values, i.e., the drug concentration in mole/liter which caused 50% inhibition of the enzyme activity (after incubation of the drug with the enzyme for 3 min). Alternatively, results are also reported in Table 1 expressed as k2 /ki which is the second order rate constant in per mole per minute for inactivation time of the enzyme [Kitz, et al., J. Biol. Chem., 237, 3245 (1962)].

[4] = tested on: Thrombin Induced Clotting Time; assay: Thrombin induced clotting time ex vivo in plasma of i.p. dosed rats; conditions: rat, 50 mg/kg i.p.; for Thrombin Induced Clotting Time (1:4 Control Plasma): plasma diluted 1:4 with control plasma; for Thrombin Induced Clotting Time, terminated samples / Thrombin Induced Clotting Time: undiluted plasma, per animal
Procedure: Procedure for Determining the Concentration Required for Doubling Thrombin Clotting Time--Clotting Time Assays
as §1
Owren's Veronal Buffer: 125 mM NaCl, 28.4 mM sodium barbital, pH 7.35.
Human citrated plasma obtained from human volunteers or citrated plasma obtained from IP-dosed animals (prepared as described below).
25 NIH Units/ml human α-thrombin in thrombin buffer for use with rat plasma.
Test compound was prepared just prior to dosing. Routinely the drugs are dissolved in water. Animals were dosed by i.p. injection.
After the appropriate time period, the animals were ether-anesthetized, and blood was drawn by cardiac puncture using 333 μl of 3.8% sodium citrate per 3 ml blood. After all of the samples were obtained, the tubes were centrifuged at 1,500 rpm for 15 min as described for the human blood samples.
Clotting Time Measurement
Clotting times were determined by pipetting 0.1 ml of Owren's buffer (pre-warmed 37° C.) and 0.1 ml of human or rat plasma into yellow sample cuvettes. For studies with human plasma 10 U/ml human thrombin (10 ml) was placed in the reservoir assembly station of the MLA 700. (Medical Laboratory Automation, Electra 700 Reservoir Assembly). For rat studies, the human thrombin concentration was 25 U/ml. The cuvettes were vortexed and then placed on the MLA 700 sample wheel. The coagulation timer (MLA 700) automatically dispenses 0.1 ml human thrombin into the sample in each cuvette. Detection of the fibrin clot was determined optically by the MLA 700.
In separate studies, two compounds, Compound XIX and Compound XI, were dosed 50 mg/kg I.P. to three rats in each study group. […] "Term" indicates "terminated sample" where a clot was unable to form after approximately 99 seconds. When this occurred, the animal plasma was diluted 1: 1 with control rat plasma and the sample tested again. If need, the animal plasma was diluted 1:4 and tested again.

- IC50 [1]: 9 nM
- IC (2-fold clotting time) [2]: 0.5 µM
- IC50 ([3]; 3 min incubation of drug with enzyme, room temperature): 90 nM
- Thrombin k2 /ki (second order rate constant for inactivation of the enzyme) ([3]; human α-thrombin, s-2238, pH 7.4, room temperature): 4.2 × 10^5 m^-1 min^-1
Structure (SMILES): CC(=O)N1C(=O)[C@@H](CCCNC(=N)N)[C@@H]1C(=O)N1CCCCC1 (relative stereo) [Compound XI, trans-4-(1-Piperidinocarbonyl)-3-guanidinooropyl-1-acetyl-2azetidinone hydrochloride salt]
- Thrombin Induced Clotting Time (1:1 Control Plasma), terminated samples ([4]; 0.5 hr. post dose, plasma diluted 1:1 with control rat plasma): term. ("terminated sample" where a clot was unable to form after approximately 99 seconds)
- Thrombin Induced Clotting Time (1:4 Control Plasma) ([4]; 0.5 hr. post dose, hydrochloride salt, 50 mg/kg, in s): 18.0 and 17.7 and 32.4
- Thrombin Induced Clotting Time, terminated samples ([4]; 0.5 hr. post dose): term. ("terminated sample" where a clot was unable to form after approximately 99 seconds)
- Thrombin Induced Clotting Time (1:1 Control Plasma) ([4]; 2 hr. post dose, plasma diluted 1:1 with control rat plasma, in s): 45.7
- Thrombin Induced Clotting Time (1:4 Control Plasma) ([4]; 2 hr. post dose, in s): 14.0
- Thrombin Induced Clotting Time, terminated samples ([4]; 2 hr. post dose): term. ("terminated sample" where a clot was unable to form after approximately 99 seconds)
- Thrombin Induced Clotting Time ([4]; 2 hr. post dose, hydrochloride salt, 50 mg/kg): 17.2 s and 14.7 s
- Thrombin Induced Clotting Time ([4]; 5 hr. post dose, hydrochloride salt, 50 mg/kg): 13.1 s and 11.4 s and 11.5 s
- Clotting time ex vivo, result in words ([4]; three rats per group): prolonged clotting time

Source: patent US5175283A, “Azetidin-2-one derivatives as serine protease inhibitors” (Bristol-Myers Squibb Company, priority 1992, dated 1992)
